From ChEMBL document CHEMBL4350952, “Evolution of PI3Kγ and δ Inhibitors for Inflammatory and Autoimmune Diseases” (J Med Chem, 2019) come the findings set out here.

Molecules are shown by their SMILES.

For assay [1], the target named is T1, Phosphatidylinositol 4,5-bisphosphate 3-kinase catalytic subunit gamma isoform (Homo sapiens, UniProt P48736). In words: Inhibition of PI3Kgamma in human Neutrophil cells. The class given is cell-based.
For assay [2], the target named is T2, Phosphatidylinositol 4,5-bisphosphate 3-kinase catalytic subunit delta isoform (Homo sapiens, UniProt O00329).
T2 sequence (O00329 whole entry): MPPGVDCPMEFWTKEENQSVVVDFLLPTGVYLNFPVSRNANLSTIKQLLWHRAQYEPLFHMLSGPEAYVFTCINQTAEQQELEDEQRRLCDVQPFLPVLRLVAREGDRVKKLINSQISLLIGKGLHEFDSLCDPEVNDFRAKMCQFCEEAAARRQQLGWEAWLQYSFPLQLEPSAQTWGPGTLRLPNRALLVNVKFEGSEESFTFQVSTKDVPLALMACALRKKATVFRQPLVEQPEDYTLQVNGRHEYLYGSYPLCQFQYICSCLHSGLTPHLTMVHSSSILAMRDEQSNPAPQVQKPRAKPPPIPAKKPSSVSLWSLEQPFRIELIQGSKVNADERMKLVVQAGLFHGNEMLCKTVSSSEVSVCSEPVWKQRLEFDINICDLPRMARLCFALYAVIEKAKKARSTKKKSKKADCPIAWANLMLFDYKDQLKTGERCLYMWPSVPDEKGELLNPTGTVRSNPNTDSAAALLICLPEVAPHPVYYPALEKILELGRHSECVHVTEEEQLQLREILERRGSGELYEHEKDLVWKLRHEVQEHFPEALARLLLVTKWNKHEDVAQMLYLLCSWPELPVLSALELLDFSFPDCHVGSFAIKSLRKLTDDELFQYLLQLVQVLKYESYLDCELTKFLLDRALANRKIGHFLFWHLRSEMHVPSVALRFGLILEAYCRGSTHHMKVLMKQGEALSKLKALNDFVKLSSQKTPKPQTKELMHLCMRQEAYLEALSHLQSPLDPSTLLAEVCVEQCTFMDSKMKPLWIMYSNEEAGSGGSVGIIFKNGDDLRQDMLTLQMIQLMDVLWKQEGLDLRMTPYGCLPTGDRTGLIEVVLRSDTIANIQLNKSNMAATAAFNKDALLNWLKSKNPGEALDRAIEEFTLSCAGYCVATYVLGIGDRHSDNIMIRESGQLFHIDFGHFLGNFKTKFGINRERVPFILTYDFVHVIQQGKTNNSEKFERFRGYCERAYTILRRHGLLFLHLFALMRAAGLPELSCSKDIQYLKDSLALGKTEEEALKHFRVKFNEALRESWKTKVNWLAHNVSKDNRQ
The experiment in a line: Inhibition of PI3Kdelta in human Neutrophil cells. The class given is cell-based.

The species named for assay [3] is Homo sapiens. The experiment in a line: Selectivity ratio of IC50 for PI3Kbeta in human Neutrophil cells to IC50 for PI3Kdelta in human Neutrophil cells. It counts as cell-based.
The species entered for assay [4] is Homo sapiens. The experiment in a line: Selectivity ratio of IC50 for PI3Kalpha in human Neutrophil cells to IC50 for PI3Kdelta in human Neutrophil cells. It counts as cell-based.
Another assay concerns Neutrophil. The experiment in a line: Cytotoxicity against in human Neutrophil cells. The class given is cell-based.
For assay [5], the target named is T2, Phosphatidylinositol 4,5-bisphosphate 3-kinase catalytic subunit delta isoform.
Description: Inhibition of PI3Kdelta (unknown origin) preincubated for 30 mins followed by insulin stimulation for 5 mins by Western blot analysis
Assay [6] is filed under the species Homo sapiens. In words: Selectivity ratio of IC50 for N-terminal His6-tagged recombiant human full length p120gamma IC50 for N-terminal His6-tagged recombinant full length human p110delta/untagged recombinant full length human p85alpha.
The target of assay [7] is T2, Phosphatidylinositol 4,5-bisphosphate 3-kinase catalytic subunit delta isoform. In words: Inhibition of PI3Kdelta (unknown origin).
For a further assay, the system named is Pfeiffer. The experiment in a line: Cytotoxicity against human Pfeiffer cells. The class given is functional, cell-based.
The target of assay [8] is T3, PI3-kinase p110-delta/p85-alpha (Homo sapiens, UniProt O00329). In words: Inhibition of N-terminal His6-tagged recombinant full length human p110delta/untagged recombinant full length human p85alpha expressed in baculovirus infected Sf21 insect cells after 20 mins by alphascreen assay.
The target in assay [9] is T3, PI3-kinase p110-delta/p85-alpha. In words: Inhibition of N-terminal His6-tagged recombinant full length human p110delta/untagged recombinant full length human p85alpha expressed in baculovirus infected Sf21 insect cells using PIP2 as substrate after 60 mins by HTRF assay.
A further assay concerns JeKo-1. The experiment in a line: Cytotoxicity against human JeKo1 cells. It counts as functional, cell-based.
Assay [10] is described as follows: Cytotoxicity against human SUDHL cells. It counts as functional, cell-based.
Assay [11] has as its target T3, PI3-kinase p110-delta/p85-alpha. The experiment in a line: Inhibition of N-terminal His6-tagged recombinant full length human p110delta/untagged recombinant full length human p85alpha expressed in baculovirus infected Sf21 insect cells after 60 mins by ADP-Glo assay.
Assay [12] has as its target T2, Phosphatidylinositol 4,5-bisphosphate 3-kinase catalytic subunit delta isoform. The experiment in a line: Inhibition of PI3Kdelta in human Pfeiffer cells. The class given is cell-based.
For assay [13], the target named is T1, Phosphatidylinositol 4,5-bisphosphate 3-kinase catalytic subunit gamma isoform. In words: Inhibition of PI3Kgamma (unknown origin).

T3 sequence (P27986 whole entry, one chain of several): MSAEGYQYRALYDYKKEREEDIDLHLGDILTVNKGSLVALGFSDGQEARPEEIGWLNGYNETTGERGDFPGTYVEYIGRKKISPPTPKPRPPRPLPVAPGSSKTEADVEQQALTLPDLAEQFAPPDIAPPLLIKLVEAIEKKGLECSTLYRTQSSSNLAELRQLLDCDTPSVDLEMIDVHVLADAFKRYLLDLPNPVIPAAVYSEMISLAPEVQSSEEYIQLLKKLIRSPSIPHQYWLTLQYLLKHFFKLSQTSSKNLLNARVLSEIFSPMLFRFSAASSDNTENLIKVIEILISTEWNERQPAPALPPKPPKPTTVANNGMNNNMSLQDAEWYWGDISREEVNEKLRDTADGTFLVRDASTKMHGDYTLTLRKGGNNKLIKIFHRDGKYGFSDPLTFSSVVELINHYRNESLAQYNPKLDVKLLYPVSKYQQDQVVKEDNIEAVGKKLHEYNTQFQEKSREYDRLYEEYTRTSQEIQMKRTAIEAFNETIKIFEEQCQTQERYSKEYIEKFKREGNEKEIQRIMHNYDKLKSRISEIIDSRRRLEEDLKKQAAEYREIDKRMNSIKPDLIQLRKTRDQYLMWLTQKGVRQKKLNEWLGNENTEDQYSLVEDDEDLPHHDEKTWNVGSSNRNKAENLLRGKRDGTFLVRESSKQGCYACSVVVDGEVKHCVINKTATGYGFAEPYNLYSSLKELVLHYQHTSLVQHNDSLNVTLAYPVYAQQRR
T1 sequence (P48736 whole entry, canonical isoform): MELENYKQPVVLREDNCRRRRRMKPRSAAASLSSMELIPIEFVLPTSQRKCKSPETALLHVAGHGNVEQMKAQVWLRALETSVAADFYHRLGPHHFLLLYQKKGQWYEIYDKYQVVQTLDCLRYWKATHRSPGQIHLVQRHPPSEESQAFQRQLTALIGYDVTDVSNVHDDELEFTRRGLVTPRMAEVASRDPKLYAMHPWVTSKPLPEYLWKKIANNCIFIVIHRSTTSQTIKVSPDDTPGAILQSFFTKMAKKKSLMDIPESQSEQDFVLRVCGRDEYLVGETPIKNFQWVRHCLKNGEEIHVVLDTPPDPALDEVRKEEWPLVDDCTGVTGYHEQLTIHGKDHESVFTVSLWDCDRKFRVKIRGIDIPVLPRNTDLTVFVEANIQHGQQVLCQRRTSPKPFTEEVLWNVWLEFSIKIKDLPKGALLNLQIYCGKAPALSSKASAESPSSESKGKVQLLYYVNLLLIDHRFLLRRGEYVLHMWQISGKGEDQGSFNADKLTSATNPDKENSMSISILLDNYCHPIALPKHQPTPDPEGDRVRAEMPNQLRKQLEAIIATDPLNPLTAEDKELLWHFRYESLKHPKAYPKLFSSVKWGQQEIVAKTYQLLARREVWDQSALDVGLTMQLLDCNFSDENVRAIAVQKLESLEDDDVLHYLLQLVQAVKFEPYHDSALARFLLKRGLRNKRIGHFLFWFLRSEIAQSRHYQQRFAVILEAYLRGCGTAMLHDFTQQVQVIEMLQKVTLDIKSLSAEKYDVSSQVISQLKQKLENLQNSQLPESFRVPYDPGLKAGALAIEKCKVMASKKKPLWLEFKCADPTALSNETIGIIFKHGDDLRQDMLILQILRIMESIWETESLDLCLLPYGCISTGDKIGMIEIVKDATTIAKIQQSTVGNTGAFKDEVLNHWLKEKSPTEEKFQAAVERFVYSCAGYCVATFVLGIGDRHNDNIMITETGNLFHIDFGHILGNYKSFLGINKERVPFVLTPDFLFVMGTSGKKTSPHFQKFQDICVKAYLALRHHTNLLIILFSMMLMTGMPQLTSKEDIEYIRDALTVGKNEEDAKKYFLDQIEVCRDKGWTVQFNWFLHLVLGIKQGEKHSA

On to `[O-][n+]1cccc(-c2nc3c(Cl)cccc3cc2[C@@H](Nc2ncnc3cccnc23)C(F)(F)F)c1` [SELETALISIB], for which the IC50 in assay [1] was 280 nM; in assay [2] it was 12 nM; with Neutrophil, 16 nM. The Ratio IC50 in the assay filed under Homo sapiens [3] stood at 180; in the assay filed under Homo sapiens [4], 300.

In assay [5], `Cc1ccn2nc([C@H](C)Nc3ncnc4[nH]cc(-c5ccc(O)c(CN6CCC(N(C)C)CC6)c5)c34)n(-c3ccccc3)c(=O)c12` returned an IC50 of 0.43 nM.

For `Cc1nc(NC(=O)CNC(=O)c2ccccc2)sc1-c1cnc(Cl)c(NS(=O)(=O)c2ccccc2)c1`, the Ratio IC50 in the assay listed under Homo sapiens [6] came to 71. This compound also came in with an IC50 in assay [7] of 0.6 nM.

`COc1c(C(C)Nc2ncnc(N)c2C#N)cc(Cl)c(C)c1-c1cccnc1` (stereo not drawn): the IC50 (in the assay with Pfeiffer; in [8]) was less than 20 nM each time.

In assay [7], `Cc1nc(N)nc(N[C@@H](C)c2nc3ccn(C)c3cc2N2CCNCC2)c1C#N` gave an IC50 of 0.7 nM.

On to `CCC(=O)N1CC[C@H](Oc2ncnc3c2nc(-c2cnn(CC)c2C)n3C)C1`, for which the half-maximal inhibitory concentration (IC50) in assay [9] was less than 1 nM.

As for `Cn1nc(-c2cnc(N)c(-c3ccc(C(N)=O)c(F)c3)n2)nc1C1(c2ccccc2)CC1`, in the assay with JeKo-1, the IC50 was 120 nM.

`CCn1c(-c2cnc(C)nc2)nc2c(NC3CCc4nc(Cl)n(C5CC5)c4C3)ncnc21` (stereo not drawn): in [9], the concentration for half-maximal inhibition (IC50) was less than 1 nM.

For `CC(Nc1ncnc2[nH]cnc12)c1cc2ccccn2c(=O)c1-c1ccccc1` (stereo not drawn), the half-maximal inhibitory concentration (IC50) in assay [7] was in the range of 0.1 to 10 nM.

As for `Cc1ncc(-c2nc3c(-c4ccc5c(c4)C4(CCCN4S(C)(=O)=O)C(=O)N5)ncnc3n2C)cn1` (stereo not drawn), the IC50 in assay [9] turned out to be 0.7 nM.

For `Cn1c(C(=O)NCC2CC2)nc2c(N3CCC(n4c(=O)[nH]c5ccccc54)CC3)ncnc21`, in assay [9], the half-inhibitory concentration (IC50) is 7.5 nM. Moreover, in the assay filed under Homo sapiens [6], the Ratio IC50 is more than 13.

Regarding `CC(=O)N1CC(N2CCOc3c(C(C)n4nc(C)c5c(N)ncnc54)cc(Cl)c(C)c3C2)C1` (stereo not drawn), the figures for the 50% inhibitory concentration (IC50) in [10] and in [8] were less than 500 nM and less than 100 nM, respectively.

For `CCn1c(-c2ccc(C(F)(F)F)nc2)nc2c(NC3CCc4nnc(C(C)C)n4C3)ncnc21` (stereo not drawn), in assay [9], the concentration for half-maximal inhibition (IC50) was less than 1 nM.

In the case of `Cc1nn(C)c(-c2ccccc2)c1Cn1nc(-c2cc(O)cc(F)c2)c2c(N)ncnc21`, in assay [11], the concentration for half-maximal inhibition (IC50) is less than 1000 nM.

As to `CC[C@H](Nc1ncnc2c1nc(-c1cnn(CC)c1C)n2C)C(=O)N1CCC(F)(F)CC1`, in assay [9], the IC50 was found to be 2.8 nM.

In [5], `Cc1cccc2nc([C@H](C)Nc3ncnc4[nH]cc(-c5cccc(NS(C)(=O)=O)c5)c34)n(-c3ccccc3)c(=O)c12` came in with an IC50 of 0.04 nM.

In the case of `Cc1c(Cl)cc(C(C)Nc2ncnc3nc[nH]c23)c(-c2cccc(F)c2)c1C(N)=O` (stereo not drawn), the IC50 (in the assay on Pfeiffer; in assay [12]) was less than 50 nM each time.

Take `CC(c1cc2ccccn2c1-c1ccc(=O)n(CCN2CCOCC2)n1)n1nc(-c2cc(O)cc(F)c2)c2c(N)ncnc21` (stereo not drawn): the IC50 is less than 10 nM in [13] and 10 to 1000 nM in assay [7].
